Data on 1 compound can be found in patent US20220362138A1, “Oral Care Compositions and Methods of Use” (Colgate-Palmolive Company, priority 2020, published 2022).

Structures are written as SMILES.

This experiment concerns IL-1 β mediated PGE2 in HEPM monolayer cells. Briefly: IL-1β mediated PGE2 suppression, HEPM monolayer cell model. Type of experiment: cell-based. Particulars: cells treated with IL-1 β. An excerpt:
IL-1 β Mediated PGE2 Suppression with Gymnema sylvestre Treatment (Cell Model)
PGE2, a marker of inflammation, can be increased via administration of IL-1 β. Samples are subjected to the HEPM monolayer cell model assay. […]

On to `Oc1cc(Cl)ccc1Oc1ccc(Cl)cc1Cl` [Triclosan], for which the PGE2 by setting is: (0.0005%) 715.9 pg/mL; (0.001%) 520.9 pg/mL.
